Data on three compounds can be found in patent US9833466B2, “Treatment of leukemia with histone deacetylase inhibitors” (Acetylon Pharmaceuticals Inc., priority 2014, dated 2017).

Holding throughout (format): cell-based
Data set [1] relates to AML cell lines (Kasumi-3, HL-60, and THP-1). Kind of data set: AML cell viability assay (Cell Titer Glo), HDAC inhibitor combined with azacitidine. The note with it: combination with azacitidine; 72 hours; synergistic only when CI<0.7. On the procedure: With the same amount of cultured AML cells in each well, serial dilutions of one compound were added into each row of the wells from left to right, and serial dilutions of the second compound were mixed into each column of these wells from top to bottom. Therefore, those AML cells on the testing plate were exposed to various combinations of the two compounds at different concentrations. The viable cells in each well were measured after 72 hours incubation at 37° C., and the percentage of unviable cells was calculated and normalized to the total cells. […] The CI values were plotted as a function of Fa, as shown in FIGS. 1A-D. In order to avoid any possible false positives due to experimental data variability, a combination was determined “synergistic” only when CI<0.7, as shown in the shaded area of each graph. […] The synergism is driven predominantly by HDAC1/2 inhibition.
For orientation: ATP-based viability assays read luminescence as a measure of living cells.

Another data set deals with NB4. Kind of data set: Surface CD11b by FACS in NB4. Particulars: combination with azacitidine vs single agent, 72 hours. As for the experimental part: Briefly, the AML cell lines HL-60 (FIGS. 4A and 4D), Kasumi-1 (FIGS. 4B and 4E) and NB4 (FIGS. 4C and 4F) were treated with the indicated concentrations of compounds. In FIGS. 4A-C, surface levels of myeloid differentiation marker CD11b were determined by FACS at 72 hours post-treatment. […] In FIGS. 4D-F, apoptosis was assessed by flow cytometry by measuring Annexin V binding and cellular permeability to propidium iodide at 96 hours post-treatment. The relative fraction of cells that were alive, in early apoptosis, in late apoptosis, or dead was then determined.
FIGS. 7A-F show the combination of HDAC inhibitors and azacitidine in the NB4 cell line. Briefly, cells were treated with DMSO, Compound B, Compound A, or Compound E as single agent or in combination with azacitidine at the indicated concentrations. Surface levels of CD11b were determined 72 hours post-treatment (FIGS. 7A, 7C, 7E), and apoptosis was assessed 96 hours post-treatment (FIGS. 7B, 7D, 7F).

A further data set has as its system MV4-11. Kind of data set: Cell cycle by flow cytometry (EdU, Far Red) in MV4-11. Particulars: single agent, 72 h. On the procedure: The distribution of cells among G0/G1 phase, G2/M phase, S phase and subG1 phase was determined. […] The relative fraction of cells that were live, in early apoptosis, in late apoptosis, or dead was then determined.
FIG. 17. […] (A) Indicated AML cell lines were exposed to increasing concentrations of Compound J to confirm their sensitivity to HDAC1/2 inhibition. (B-D) MV4-11 cells were treated with indicated concentrations of compounds. (B) Surface levels of myeloid differentiation marker CD11b were determined by FACS at 72 h post-treatment. […] (C) Cell cycle was assessed by flow cytometry after incorporation of EdU and staining with Far Red at 72 h post-treatment. The distribution of cells among G0/G1 phase, G2/M phase, S phase and subG1 phase was determined. […] (D) Apoptosis was assessed by flow cytometry via measuring Annexin V binding and cellular permeability to propidium iodide at 96 h post-treatment. The relative fraction of cells that were live, in early apoptosis, in late apoptosis or dead was then determined.
In general terms: A flow cytometer gives signals particle by particle.

Data set [2] relates to HL-60, NB4, MV4-11, Kasumi-1, THP-1, and MOLM-13. Kind of data set: Single agent activity on viability in AML cell lines. Particulars: 72 hours, six AML cell lines. On the procedure:
FIGS. 3A-D show the single agent activity on viability in AML cell lines. Briefly, each of the following cell lines: HL-60, THP-1, MV-4-11, Kasumi-1, NB4, and MOLM-13 were exposed to increasing concentrations of either Compound B (FIG. 3A), Compound A (FIG. 3B), Compound E (FIG. 3C), or azacitidine (FIG. 3D) to determine their response to drug treatment. […] The panel of cell lines was also treated with azacitidine to measure their sensitivity.
FIGS. 8A-F show the single agent activity on viability in AML cell lines. […] Viability was calculated as a percentage of control (DMSO treated cells). Growth inhibition curves were generated using GraphPad Prism 6.
FIG. 17. […] (B-D) MV4-11 cells were treated with indicated concentrations of compounds. (B) Surface levels of myeloid differentiation marker CD11b were determined by FACS at 72 h post-treatment. […] (C) Cell cycle was assessed by flow cytometry after incorporation of EdU and staining with Far Red at 72 h post-treatment. The distribution of cells among G0/G1 phase, G2/M phase, S phase and subG1 phase was determined. […] (D) Apoptosis was assessed by flow cytometry via measuring Annexin V binding and cellular permeability to propidium iodide at 96 h post-treatment. The relative fraction of cells that were live, in early apoptosis, in late apoptosis or dead was then determined.

The next data set has as its system Kasumi-1. Kind of data set: Kasumi-1 cell cycle by propidium iodide staining (sub-G1). Particulars: 72 hours, increasing concentrations. As for the experimental part: HDAC inhibition causing AML cell death (apoptosis) was measured by staining the AML cells with propidium iodide after the cells were exposed to different concentrations of the HDAC inhibitors. Four distinct cell populations, G1, S, G2, and sub-G1, were separated and quantified based on their propidium iodide staining patterns. The sub-G1 cells are those dying or dead cells, and the percentage of this population was a reflection of the tested compound cytotoxicity.

As for `O=C(CCCCCCNC(=O)c1cnc(N(c2ccccc2)c2ccccc2)nc1)NO` [Compound A, 2-(diphenylamino)-N-(7-(hydroxyamino)-7-oxoheptyl)pyrimidine-5-carboxamide], the “synergy of cytotoxicity with azacitidine (CI vs Fa)” value in data set [1] is listed as “significant synergistic cell killing”. The CD11b positive cells result in the data set on NB4 is listed as “synergistic increases of CD11b positive cells”. The cell cycle arrest result in the data set with MV4-11 was “induced cell cycle arrest as well as apoptosis”. For the same compound, the “viability IC50 relative to HDAC selective range” value in data set [2] is listed as “has some inhibitory effects on HDAC1/2 at their IC50 values”.
As for `O=C(CCCCCCNC(=O)c1cnc(N(c2ccccc2)c2ccccc2Cl)nc1)NO` [Compound B, 2-((2-chlorophenyl)(phenyl)amino)-N-(7-(hydroxyamino)-7-oxoheptyl)pyrimidine-5-carboxamide], the CD11b positive cells entry in the data set on NB4 is “synergistic increases of CD11b positive cells”. Moreover, in the data set on Kasumi-1, the “sub-G1 cells (dying or dead cells)” value is listed as “Increased amount of sub-G1 cells”.
For `Nc1ccc(-c2cccs2)cc1NC(=O)c1ccc2c(c1)cc(C1CC1)n2CCN1CCOCC1` [Compound E, N-(2-amino-5-(thiophen-2-yl)phenyl)-2-cyclopropyl-1-(2-morpholinoethyl)-1H-indole-5-carboxamide], the “synergy of cytotoxicity with azacitidine (CI vs Fa)” value in data set [1] is “the most synergy”. The cell cycle arrest result in the data set with MV4-11 is “induced cell cycle arrest as well as apoptosis”. Besides, the “viability IC50 relative to HDAC selective range” value in data set [2] is on record as “within its HDAC1/2 selective range”. Besides, the “sub-G1 cells (dying or dead cells)” value with Kasumi-1 is given as “Increased amount of sub-G1 cells”.
